The supplement of paper PMC10307832

Columns and labels:
Assay in all cases: relative viability (nuclei count vs DMSO), 5 days (fraction); higher = more cells survive
Afatinib + Alpelisib = compound: CN(C)C/C=C/C(=O)Nc1cc2c(Nc3ccc(F)c(Cl)c3)ncnc2cc1O[C@H]1CCOC1 [Afatinib] + Cc1nc(NC(=O)N2CCC[C@H]2C(N)=O)sc1-c1ccnc(C(C)(C)C(F)(F)F)c1 [Alpelisib] (partner 2 µM)
Outline: (§1)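 Nuclei were stained with Hoechst during a one-step fixation (final 0.05% Triton X-100, 1% formaldehyde, 1 ug/ml Hoechst) carried out 5 days after dosing, then counted on 4× images. The cells, lung cancer lines in 1536-well plates, had been dosed by pin tool the day after seeding with one drug alone or a fixed anchor-drug dose plus five library-drug doses (not always all listed) in √10 steps. Relative viability is the nuclei count in treated wells divided by that in vehicle wells, and each value is the median of duplicate plates.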

Afatinib + Tozasertib = compound: CN(C)C/C=C/C(=O)Nc1cc2c(Nc3ccc(F)c(Cl)c3)ncnc2cc1O[C@H]1CCOC1 [Afatinib] + Cc1cc(Nc2cc(N3CCN(C)CC3)nc(Sc3ccc(NC(=O)C4CC4)cc3)n2)n[nH]1 [Tozasertib] (partner 0.1 µM)
Outline: as §1

Afatinib + Luminespib = compound: CN(C)C/C=C/C(=O)Nc1cc2c(Nc3ccc(F)c(Cl)c3)ncnc2cc1O[C@H]1CCOC1 [Afatinib] + CCNC(=O)c1noc(-c2cc(C(C)C)c(O)cc2O)c1-c1ccc(CN2CCOCC2)cc1 [Luminespib] (partner 0.01 µM)
Outline: as §1

Afatinib + Dasatinib = compound: CN(C)C/C=C/C(=O)Nc1cc2c(Nc3ccc(F)c(Cl)c3)ncnc2cc1O[C@H]1CCOC1 [Afatinib] + Cc1nc(Nc2ncc(C(=O)Nc3c(C)cccc3Cl)s2)cc(N2CCN(CCO)CC2)n1 [Dasatinib] (partner 0.075 µM)
Outline: as §1

PC-3 [JPC-3] gave a relative viability (Afatinib + Alpelisib; first compound 0.005 µM) of 0.49, a relative viability (Afatinib + Alpelisib; first compound 0.01581 µM) of 0.392 and a relative viability (Afatinib + Alpelisib; first compound 0.05 µM) of 0.377. For the same cell line, the relative viability (Afatinib + Alpelisib; first compound 0.1581 µM) was 0.362, the relative viability (Afatinib + Alpelisib; first compound 0.5 µM) was 0.354 and the relative viability (Afatinib + Tozasertib; first compound 0.005 µM) was 0.443. It also gave a relative viability (Afatinib + Tozasertib; first compound 0.01581 µM) of 0.416, a relative viability (Afatinib + Tozasertib; first compound 0.05 µM) of 0.428 and a relative viability (Afatinib + Tozasertib; first compound 0.1581 µM) of 0.291. It also gave a relative viability (Afatinib + Tozasertib; first compound 0.5 µM) of 0.37, a relative viability (Afatinib + Luminespib; first compound 0.005 µM) of 0.54 and a relative viability (Afatinib + Luminespib; first compound 0.01581 µM) of 0.402. The relative viability (Afatinib + Luminespib; first compound 0.05 µM) was 0.445, the relative viability (Afatinib + Luminespib; first compound 0.1581 µM) was 0.277 and the relative viability (Afatinib + Luminespib; first compound 0.5 µM) was 0.415. It also gave a relative viability (Afatinib + Dasatinib; first compound 0.005 µM) of 0.46, a relative viability (Afatinib + Dasatinib; first compound 0.01581 µM) of 0.339 and a relative viability (Afatinib + Dasatinib; first compound 0.05 µM) of 0.286. For the same cell line, the relative viability (Afatinib + Dasatinib; first compound 0.1581 µM) was 0.25 and the relative viability (Afatinib + Dasatinib; first compound 0.5 µM) was 0.33.

For PC-14, the relative viability (Afatinib + Alpelisib; first compound 0.005 µM) was 0.169, the relative viability (Afatinib + Alpelisib; first compound 0.01581 µM) was 0.15 and the relative viability (Afatinib + Alpelisib; first compound 0.05 µM) was 0.137. For the same cell line, the relative viability (Afatinib + Alpelisib; first compound 0.1581 µM) was 0.127, the relative viability (Afatinib + Alpelisib; first compound 0.5 µM) was 0.163 and the relative viability (Afatinib + Tozasertib; first compound 0.005 µM) was 0.228. For the same cell line, the relative viability (Afatinib + Tozasertib; first compound 0.01581 µM) was 0.257, the relative viability (Afatinib + Tozasertib; first compound 0.05 µM) was 0.254 and the relative viability (Afatinib + Tozasertib; first compound 0.1581 µM) was 0.232. For the same cell line, the relative viability (Afatinib + Tozasertib; first compound 0.5 µM) was 0.247, the relative viability (Afatinib + Luminespib; first compound 0.005 µM) was 0.152 and the relative viability (Afatinib + Luminespib; first compound 0.01581 µM) was 0.115. For the same cell line, the relative viability (Afatinib + Luminespib; first compound 0.05 µM) was 0.19, the relative viability (Afatinib + Luminespib; first compound 0.1581 µM) was 0.126 and the relative viability (Afatinib + Luminespib; first compound 0.5 µM) was 0.144. The relative viability (Afatinib + Dasatinib; first compound 0.005 µM) was 0.0312, the relative viability (Afatinib + Dasatinib; first compound 0.01581 µM) was 0.0316 and the relative viability (Afatinib + Dasatinib; first compound 0.05 µM) was 0.0366. For the same cell line, the relative viability (Afatinib + Dasatinib; first compound 0.1581 µM) was 0.0312 and the relative viability (Afatinib + Dasatinib; first compound 0.5 µM) was 0.0453.

RERF-LC-KJ showed a relative viability (Afatinib + Alpelisib; first compound 0.005 µM) of 0.784, a relative viability (Afatinib + Alpelisib; first compound 0.01581 µM) of 0.636 and a relative viability (Afatinib + Alpelisib; first compound 0.05 µM) of 0.601. For the same cell line, the relative viability (Afatinib + Alpelisib; first compound 0.1581 µM) was 0.572, the relative viability (Afatinib + Alpelisib; first compound 0.5 µM) was 0.502 and the relative viability (Afatinib + Tozasertib; first compound 0.005 µM) was 0.502. For the same cell line, the relative viability (Afatinib + Tozasertib; first compound 0.01581 µM) was 0.611, the relative viability (Afatinib + Tozasertib; first compound 0.05 µM) was 0.575 and the relative viability (Afatinib + Tozasertib; first compound 0.1581 µM) was 0.424. For the same cell line, the relative viability (Afatinib + Tozasertib; first compound 0.5 µM) was 0.484, the relative viability (Afatinib + Luminespib; first compound 0.005 µM) was 1.19 and the relative viability (Afatinib + Luminespib; first compound 0.01581 µM) was 1.11. The relative viability (Afatinib + Luminespib; first compound 0.05 µM) was 1.19, the relative viability (Afatinib + Luminespib; first compound 0.1581 µM) was 1.1 and the relative viability (Afatinib + Luminespib; first compound 0.5 µM) was 1.08. For the same cell line, the relative viability (Afatinib + Dasatinib; first compound 0.005 µM) was 0.663, the relative viability (Afatinib + Dasatinib; first compound 0.01581 µM) was 0.662 and the relative viability (Afatinib + Dasatinib; first compound 0.05 µM) was 0.736. For the same cell line, the relative viability (Afatinib + Dasatinib; first compound 0.1581 µM) was 0.61 and the relative viability (Afatinib + Dasatinib; first compound 0.5 µM) was 0.616.

Work on SK-LU-1 yielded a relative viability (Afatinib + Alpelisib; first compound 0.005 µM) of 1.38, a relative viability (Afatinib + Alpelisib; first compound 0.01581 µM) of 0.918 and a relative viability (Afatinib + Alpelisib; first compound 0.05 µM) of 1.06. The relative viability (Afatinib + Alpelisib; first compound 0.1581 µM) was 1.1, the relative viability (Afatinib + Alpelisib; first compound 0.5 µM) was 0.913 and the relative viability (Afatinib + Tozasertib; first compound 0.005 µM) was 0.332. For the same cell line, the relative viability (Afatinib + Tozasertib; first compound 0.01581 µM) was 0.32, the relative viability (Afatinib + Tozasertib; first compound 0.05 µM) was 0.355 and the relative viability (Afatinib + Tozasertib; first compound 0.1581 µM) was 0.322. The relative viability (Afatinib + Tozasertib; first compound 0.5 µM) was 0.277, the relative viability (Afatinib + Luminespib; first compound 0.005 µM) was 0.19 and the relative viability (Afatinib + Luminespib; first compound 0.01581 µM) was 0.206. For the same cell line, the relative viability (Afatinib + Luminespib; first compound 0.05 µM) was 0.233, the relative viability (Afatinib + Luminespib; first compound 0.1581 µM) was 0.193 and the relative viability (Afatinib + Luminespib; first compound 0.5 µM) was 0.193. For the same cell line, the relative viability (Afatinib + Dasatinib; first compound 0.005 µM) was 0.179, the relative viability (Afatinib + Dasatinib; first compound 0.01581 µM) was 0.203 and the relative viability (Afatinib + Dasatinib; first compound 0.05 µM) was 0.211. It also gave a relative viability (Afatinib + Dasatinib; first compound 0.1581 µM) of 0.175 and a relative viability (Afatinib + Dasatinib; first compound 0.5 µM) of 0.222.

SK-MES-1 showed a relative viability (Afatinib + Alpelisib; first compound 0.005 µM) of 0.823, a relative viability (Afatinib + Alpelisib; first compound 0.01581 µM) of 0.653 and a relative viability (Afatinib + Alpelisib; first compound 0.05 µM) of 0.396. For the same cell line, the relative viability (Afatinib + Alpelisib; first compound 0.1581 µM) was 0.309, the relative viability (Afatinib + Alpelisib; first compound 0.5 µM) was 0.32 and the relative viability (Afatinib + Tozasertib; first compound 0.005 µM) was 0.928. It also gave a relative viability (Afatinib + Tozasertib; first compound 0.01581 µM) of 0.897, a relative viability (Afatinib + Tozasertib; first compound 0.05 µM) of 0.723 and a relative viability (Afatinib + Tozasertib; first compound 0.1581 µM) of 0.613. The relative viability (Afatinib + Tozasertib; first compound 0.5 µM) was 0.532, the relative viability (Afatinib + Luminespib; first compound 0.005 µM) was 0.476 and the relative viability (Afatinib + Luminespib; first compound 0.01581 µM) was 0.399. For the same cell line, the relative viability (Afatinib + Luminespib; first compound 0.05 µM) was 0.481, the relative viability (Afatinib + Luminespib; first compound 0.1581 µM) was 0.277 and the relative viability (Afatinib + Luminespib; first compound 0.5 µM) was 0.49. For the same cell line, the relative viability (Afatinib + Dasatinib; first compound 0.005 µM) was 0.247, the relative viability (Afatinib + Dasatinib; first compound 0.01581 µM) was 0.203 and the relative viability (Afatinib + Dasatinib; first compound 0.05 µM) was 0.18. It also gave a relative viability (Afatinib + Dasatinib; first compound 0.1581 µM) of 0.139 and a relative viability (Afatinib + Dasatinib; first compound 0.5 µM) of 0.16.

In the case of SW 1573, the relative viability (Afatinib + Alpelisib; first compound 0.005 µM) is reported as 0.778, the relative viability (Afatinib + Alpelisib; first compound 0.01581 µM) is reported as 0.805 and the relative viability (Afatinib + Alpelisib; first compound 0.05 µM) is reported as 0.805. It also gave a relative viability (Afatinib + Alpelisib; first compound 0.1581 µM) of 0.811, a relative viability (Afatinib + Alpelisib; first compound 0.5 µM) of 0.668 and a relative viability (Afatinib + Tozasertib; first compound 0.005 µM) of 0.16. The relative viability (Afatinib + Tozasertib; first compound 0.01581 µM) was 0.175, the relative viability (Afatinib + Tozasertib; first compound 0.05 µM) was 0.202 and the relative viability (Afatinib + Tozasertib; first compound 0.1581 µM) was 0.158. For the same cell line, the relative viability (Afatinib + Tozasertib; first compound 0.5 µM) was 0.171, the relative viability (Afatinib + Luminespib; first compound 0.005 µM) was 0.141 and the relative viability (Afatinib + Luminespib; first compound 0.01581 µM) was 0.262. It also gave a relative viability (Afatinib + Luminespib; first compound 0.05 µM) of 0.247, a relative viability (Afatinib + Luminespib; first compound 0.1581 µM) of 0.214 and a relative viability (Afatinib + Luminespib; first compound 0.5 µM) of 0.214. For the same cell line, the relative viability (Afatinib + Dasatinib; first compound 0.005 µM) was 0.355, the relative viability (Afatinib + Dasatinib; first compound 0.01581 µM) was 0.438 and the relative viability (Afatinib + Dasatinib; first compound 0.05 µM) was 0.528. For the same cell line, the relative viability (Afatinib + Dasatinib; first compound 0.1581 µM) was 0.475 and the relative viability (Afatinib + Dasatinib; first compound 0.5 µM) was 0.417.

UMC-11 was tested, and the relative viability (Afatinib + Alpelisib; first compound 0.005 µM) was 1, the relative viability (Afatinib + Alpelisib; first compound 0.01581 µM) was 1.03 and the relative viability (Afatinib + Alpelisib; first compound 0.05 µM) was 0.953. It also gave a relative viability (Afatinib + Alpelisib; first compound 0.1581 µM) of 0.963, a relative viability (Afatinib + Alpelisib; first compound 0.5 µM) of 1.13 and a relative viability (Afatinib + Tozasertib; first compound 0.005 µM) of 0.206. It also gave a relative viability (Afatinib + Tozasertib; first compound 0.01581 µM) of 0.199, a relative viability (Afatinib + Tozasertib; first compound 0.05 µM) of 0.198 and a relative viability (Afatinib + Tozasertib; first compound 0.1581 µM) of 0.207. The relative viability (Afatinib + Tozasertib; first compound 0.5 µM) was 0.187, the relative viability (Afatinib + Luminespib; first compound 0.005 µM) was 1.03 and the relative viability (Afatinib + Luminespib; first compound 0.01581 µM) was 1.08. The relative viability (Afatinib + Luminespib; first compound 0.05 µM) was 1.06, the relative viability (Afatinib + Luminespib; first compound 0.1581 µM) was 1.01 and the relative viability (Afatinib + Luminespib; first compound 0.5 µM) was 0.944. It also gave a relative viability (Afatinib + Dasatinib; first compound 0.005 µM) of 0.657, a relative viability (Afatinib + Dasatinib; first compound 0.01581 µM) of 0.439 and a relative viability (Afatinib + Dasatinib; first compound 0.05 µM) of 0.436. The relative viability (Afatinib + Dasatinib; first compound 0.1581 µM) was 0.419 and the relative viability (Afatinib + Dasatinib; first compound 0.5 µM) was 0.419.
